Here are results for three compounds from patent publication US9227921B2, “Salts and polymorphs of a tetracycline compound” (Paratek Pharmaceuticals, Inc., priority 2008, dated 2016).

Format in all cases: physicochemical
The nature of data set [1]: Stability studies on free base Compound 1 and amorphous diHCl salt. The following applies: 40° C. Here is the method:
Stability studies were performed on the free base Compound 1 and an amorphous diHCl salt of Compound 1. This salt was formed by dissolving the compound in aqueous solution, adjusting the pH of the solution to approximately 4.2, followed by lyophilization. The free base degraded in less than one month at 40° C., and approximately three months at 4° C. In contrast, the diHCl salt of Compound 1 was stable for 6 months at 40° C., and for two years at room temperature (25° C.).

A short description of data set [2]: Temperature and moisture stability study (HPLC impurity profile). Here is the method: A stability study was conducted on tosylate salt and mesylate salt of Compound 1, by monitoring changes in the high performance liquid chromatography (HPLC) impurity profiles for each salt when exposed to various temperatures and/or humidity conditions. Each sample was placed in a closed container and exposed to three controlled environments: refrigerated (5° C.), 20° C. and 60% relative humidity, and 40° C. and 75% relative humidity. […] The stability study of the crystalline tosylate salt was continued.
Samples were analyzed by the following reversed-phase HPLC impurity profile method at time points 0, 1, 2, 4 weeks (Table 7) and 3 months (Table 8) for the tosylate salt; and 0, 1 and 2 weeks for the mesylate salt (Table 9).
Reversed-phase HPLC analysis was conducted using a SYMMETRY SHIELD RP18 column (4.6×250 mm, 5 µm particle size), although analysis using a similar or equivalent column would be expected to yield similar results. The mobile phase components were 0.01 M ammonium acetate in water at pH 3.3 (A) and acetonitrile (B). The mobile phase composition was a gradient that increased from 6% to 15% B in five minutes, held at 15% B for 15 minutes, increased from 15% to 60% B in ten minutes, then from 60% to 90% B in two minutes, and then the system was re-equilibrated at 6% B for four minutes. The flow rate was 1.0 mL/minute, and the injection volume was 10.0 μL. The column temperature was maintained at 30° C. Detection was by ultraviolet light (UV) at 280 nm. The retention time for Compound 1 was approximately 15.7 minutes. The sample solution was prepared in mobile phase A to a final concentration of 2.0 mg/mL.

Data set [3] in a line: Relative stabilities of the polymorphic forms (maturation / slurry, XRPD). Here is the method:
The relative stabilities of the polymorphic forms of Compound 1 were analyzed. For example, form 1 tosylate salt was subjected to a maturation experiment for 24 hours in either IPA or methyl pentanone, seeded with either form 2 or form 3 tosylate salt. […] A slurry of a 50:50 mixture of form 1 and form 3 were analyzed in IPA for 18 hours at 0° C., 25° C., 40° C., and 60° C., as shown in FIG. 7.

SMILES strings stand for the structures.

For the compound `CN(C)c1cc(CNCC(C)(C)C)c(O)c2c1CC1CC3C(N(C)C)C(O)=C(C(N)=O)C(=O)C3(O)C(O)=C1C2=O.Cl.Cl` (stereo not drawn) [diHCl salt of Compound 1], in data set [1], the “time for which the substance was stable” value is listed as 6 months.
`CN(C)c1cc(CNCC(C)(C)C)c(O)c2c1CC1CC3C(N(C)C)C(O)=C(C(N)=O)C(=O)C3(O)C(O)=C1C2=O.CS(=O)(=O)O` (stereo not drawn) [mesylate salt of Compound 1]: in data set [2] (1 week, 5° C.), the “Compound 1” value was 98.2%, the “RRT 1.19” value stood at 0.17%, the “RRT 1.26 (beta-epimer)” value was 1.6% and the “RRT 1.77” value was 0.08%. Further, the “Total Impurities” value in data set [2] (1 week, 5° C.) is 1.85%. Besides, in data set [2] (1 week, 20° C. & 60% RH), the “Compound 1” value is recorded as 98.0%, the “RRT 1.19” value was determined as 0.17%, the “RRT 1.26 (beta-epimer)” value is reported as 1.8% and the “RRT 1.77” value is given as 0.09%. The “Total Impurities” value in data set [2] (1 week, 20° C. & 60% RH) is given as 2.06%. In addition, in data set [2] (1 week, 40° C. & 75% RH), the “Compound 1” value was determined as 97.1%, the “RRT 0.52” value was found to be 0.07%, the “RRT 0.77” value was found to be 0.05% and the “RRT 1.19” value worked out at 0.16%. Moreover, in data set [2] (1 week, 40° C. & 75% RH), the “RRT 1.26 (beta-epimer)” value amounted to 2.6%, the “RRT 1.77” value is 0.09% and the “Total Impurities” value amounted to 2.97%. Moreover, in data set [2] (2 weeks, 5° C.), the “Compound 1” value was 98.3%, the “RRT 0.93” value was determined as 0.06%, the “RRT 1.19” value is recorded as 0.20% and the “RRT 1.26 (beta-epimer)” value came to 1.3%. In data set [2] (2 weeks, 5° C.), the “RRT 1.77” value worked out at 0.09% and the “Total Impurities” value stood at 1.65%. Moreover, in data set [2] (2 weeks, 20° C. & 60% RH), the “Compound 1” value is on record as 98.1%, the “RRT 0.93” value was determined as 0.06%, the “RRT 1.19” value came out at 0.20% and the “RRT 1.26 (beta-epimer)” value stood at 0.11%. Moreover, in data set [2] (2 weeks, 20° C. & 60% RH), the “RRT 1.77” value was 0.11% and the “Total Impurities” value was 1.87%. Also, in data set [2] (2 weeks, 40° C. & 75% RH), the “Compound 1” value came out at 96.6%, the “RRT 0.52” value is given as 0.05%, the “RRT 0.77” value stood at 0.07% and the “RRT 0.93” value was determined as 0.06%. Moreover, in data set [2] (2 weeks, 40° C. & 75% RH), the “RRT 1.19” value was determined as 0.19%, the “RRT 1.26 (beta-epimer)” value amounted to 0.11%, the “RRT 1.77” value came to 0.11% and the “Total Impurities” value is given as 3.38%. Moreover, in data set [2] (5° C.), the stability result is reported as “unstable”. In data set [2] (Initial), the “Compound 1” value came to 98.3%, the “RRT 1.19” value was determined as 0.20%, the “RRT 1.26 (beta-epimer)” value was found to be 1.5% and the “Total Impurities” value is 1.70%.
In the case of `CN(C)c1cc(CNCC(C)(C)C)c(O)c2c1CC1CC3C(N(C)C)C(O)=C(C(N)=O)C(=O)C3(O)C(O)=C1C2=O.Cc1ccc(S(=O)(=O)O)cc1` (stereo not drawn) [form 1 tosylate salt], the “change of polymorphic form in slurry” value in data set [3] (50:50 mixture of form 1 and form 3 in IPA, 18 hours at 0° C., 25° C., 40° C., 60° C.) was “no change of form 1 into form 3”. Besides, the “change of polymorphic form on maturation” value in data set [3] (24 hours in IPA or methyl pentanone, seeded with form 2 or form 3 tosylate salt) was “no change of form 1 into form 2 or 3”.
